{
  "source": "patent US20250082598A1",
  "about": "“Melafenoxate, 2-(1-adamantylamino)ethyl 2-(4-chlorophenoxy)acetate and derivatives thereof for treating circadian rhythm sleep disorders with neurodegenerative diseases such as Alzheimer's disease” (NLS Pharmaceutics AG, priority 2021, published 2025)",
  "system": "C57BL/6J mice",
  "assay": "Scopolamine-induced amnesia in the novel object recognition (NOR) test",
  "type": "in vivo",
  "details": "scopolamine 1.2 mg/kg i.p. alone",
  "method": "The scopolamine-induced amnesia in the novel object recognition (NOR) test in mice is a recognized in vivo model of Alzheimer Disease (AD).\nThe aim of this study is to examine whether Melafenoxate (NLS-8) improves amnesia induced by scopolamine in the NOR test.\nExperiments were carried out on C57BL/6J mice.\nIn a first step of the experiment, NLS-8 was tested at 25, 50 and 100 mg/kg.\nAnimals were divided into 6 groups (N=4-10/group).\nAt T=0 min, they received the following treatments by intraperitoneal (i.p.) route: • Control group: vehicle. • Scopolamine group: scopolamine (1.2 mg/kg). • NLS-8 25 group: NLS-8 (25 mg/kg)+scopolamine (1.2 mg/kg). • NLS-8 50 group: NLS-8 (50 mg/kg)+scopolamine (1.2 mg/kg). • NLS-8 100 group: NLS-8 (100 mg/kg)+scopolamine (1.2 mg/kg). • NLS-8 150 group: NLS-8 (150 mg/kg)+scopolamine (1.2 mg/kg).\nAt T=30 min following treatment, animals were subjected to a sample trial. They were placed for a 12-min session in a circular experimental box in which two identical objects were presented (50% of animals: two brown cylindrical vials; 50% of animals: two black rectangular columns). At t=120 min following treatments, mice were subjected to a choice trial. They were placed again for a 12-min session in the same experimental box in which two different objects (a vial and a column) were presented: one of the objects (termed as familiar object) presented in the sample trial and a novel object. Exploration of the objects was recorded by an experimenter blind to treatment and unaware of which object was the novel one and which object was the familiar one.\nDI(discrimination index)=100 ×(exploration time of the novel object−exploration time of the familiar object)/(exploration time of the novel object+exploration time of the familiar object). • Index of exploration: N+F=exploration time of the novel object+exploration time of the familiar object.\n• Within group comparisons: DI vs. 0 (paired Student's t test). • Between group comparisons vs. the Control group and vs. the Scopo group: unpaired Student's t test.",
  "data": [
    {"compound": "CN1[C@@H]2C[C@@H](OC(=O)[C@H](CO)c3ccccc3)C[C@H]1[C@@H]1O[C@@H]12", "note": "[Scopo, scopolamine, reference compound]", "values": [
      {"measurement": "discrimination index vs. 0 (within group)", "result": "Not significantly different from 0"},
      {"measurement": "discrimination index vs. Control group", "result": "Significantly lower"}
    ]}
  ]
}
